Source: patent publication US11352365B2, “Biased potent opioid-like agonists as improved medications to treat chronic and acute pain and methods of using the same” (THE UNITED STATES OF AMERICA, AS REPRESENTED BY THE …, priority 2018, dated 2022)
Read-outs that look alike come from different tables or passages of the source.

Columns and labels:
[1] = biological target: T1, δ opioid receptor (Rattus norvegicus, UniProt P33533); assay: Binding assay, 3H DADLE, rat tissue
T1 construct: from tissue; host or cells: rat tissue (per the earlier reading)

[2] = biological target: T2, κ opioid receptor (Rattus norvegicus, UniProt P34975); assay: Binding assay, 3H U69,593, rat tissue
T2 construct: from tissue; host or cells: rat tissue (per the earlier reading)

[3] = biological target: T3, μ opioid receptor (Rattus norvegicus, UniProt P33535); settings: read-out: 3H DAMGO μ Ki ± SEM; rat tissue, triplicate
[4] = biological target: T4, MOR (Homo sapiens, UniProt P35372); assay: cell-based; type: cell-based; design: host or cells: U2OS-β-arrestin2-EFC-hMOR
Experimental: The PathHunter β-arrestin assay. The assay was performed according to the manufacturer's protocol (DiscoveRx) and as described previously. Briefly, 5000 U2OS-β-arrestin2-EFC-hMOR cells were plated in 384-well white plates with Opti-MEM media (Invitrogen) containing 1% FBS±pertussis toxin (100 ng/ml) overnight. The next day, cells were treated with compounds for 90 min at 37° C., followed by a 1-hour incubation of detection reagent at room temperature. Luminescence values were determined by using a Synergy HT luminometer (BioTek).

[5] = biological target: T4, MOR; assay: cell-based; type: cell-based; design: expressed in transfected cells; host or cells: CHO-hMOR (membrane variant); SH-SY5Y-hMOR also named; settings: for EC50: read-out: MOR cAMP Agonist Potency ± SEM; for agonist character at the mu-receptor (in words): in vitro data
Experimental: Four thousand cells per well were split into 384-well low-volume plate (VWR) with Opti-MEM (Invitrogen) supplemented with 1% FBS for 3 hours at 37° C. except SH-SY5Y-hMOR cells, which were plated for 1 hour at 37° C. Cells were then treated with drugs, […] forskolin for 30 min at room temperature.
Cells were then homogenized by a Dounce homogenizer 15 times in an ice-cold buffer [50 mM Hepes (pH 7.4)], followed by centrifugation at 500 g at 4° C. for 5 min. The supernatant was transferred to a 1.5-ml tube on ice, and the pellet was resuspended, homogenized, and centrifuged at 500 g at 4° C. for 5 min. Then, the supernatant was combined and spun at 20,000 g at 4° C. for 10 min. The membrane pellet was resuspended in an ice-cold buffer [50 mM Hepes (pH 7.4)] at concentrations of […]. Membranes were stored at −80° C. until use. For forskolin-stimulated cAMP accumulation assay, membranes were diluted in an assay buffer (50 mM Hepes, 10 mM MgCl2, 100 mM NaCl, 200 mM adenosine 5′-triphosphate, 10 mM GTP, 100 mM 3-isobutyl-1-methylxanthine, 20 mM forskolin, and 30 mM bovine serum albumin) and plated at […] of protein in each well. Membranes were treated with test compounds for 30 min at room temperature. The cAMP levels were determined as per the manufacturer's instructions (Cisbio cAMP HiRange assay).

[6] = biological target: T5, KOR (Homo sapiens, UniProt P41145); assay: KOR cAMP agonist assay; type: cell-based; settings: Table 1; read-out: KOR cAMP Agonist Potency ± SEM
[7] = biological target: T5, KOR; assay: KOR cAMP antagonist assay; type: cell-based
[8] = biological target: T3, μ opioid receptor; assay: biochemical
[9] = test system: δ and μ opioid receptors; assay: In vitro potency ratio at δ and μ opioid receptors; type: cell-based
[10] = test system: Male Swiss-Webster mice; assay: Respiration rate and arterial oxygen saturation (MouseOx pulse oximeter) in conscious mice; settings: for respiratory depression in mice: equi-analgesic dose range of morphine
Experimental: Measurement of respiration rate and arterial oxygen saturation. […] They were housed (five in a cage) in a temperature-controlled environment with a 12-hour light-dark cycle and were supplied with food and water ad libitum. Mice were acclimated for a week in the central animal facility before behavioral testing. On the day of the experiment, mice were brought to the room and acclimated for 45-60 min in the observation boxes. Respiration and oxygen saturation (SpO2) were measured using MouseOx Plus Rat and Mouse Pulse Oximeter (Starr Life Sciences Corp, Oakmont, USA) in conscious, freely moving animals. […] Mice were then placed into observation boxes and recording was started 5 min later to eliminate any anesthesia effect.
Data are expressed as mean±standard error of the mean (S.E.M.), and p<0.05 was accepted as statistically significant. GraphPad Prism, version 7, was used for data analysis.

[11] = biological target: T4, MOR; type: cell-based; design: expressed in transfected cells; host or cells: CHO-hMOR (membrane variant); SH-SY5Y-hMOR also named; settings: Table 4
[12] = biological target: T4, MOR; design: host or cells: U2OS-β-arrestin2-EFC-hMOR; settings: cited from earlier work
[13] = Table 1, read-out: MOR Mediated β-arrestin Recruitment

T2 sequence (P34975 whole entry): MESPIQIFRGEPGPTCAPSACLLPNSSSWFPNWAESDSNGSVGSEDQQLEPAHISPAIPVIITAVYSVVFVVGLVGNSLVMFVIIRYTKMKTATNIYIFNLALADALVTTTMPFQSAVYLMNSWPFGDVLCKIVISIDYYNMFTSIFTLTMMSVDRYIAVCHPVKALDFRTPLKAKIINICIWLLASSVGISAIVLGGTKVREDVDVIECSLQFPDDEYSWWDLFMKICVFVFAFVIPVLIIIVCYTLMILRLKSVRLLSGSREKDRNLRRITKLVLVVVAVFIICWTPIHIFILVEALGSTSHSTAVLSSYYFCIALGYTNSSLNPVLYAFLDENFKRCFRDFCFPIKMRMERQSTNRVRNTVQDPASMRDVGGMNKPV
T5 sequence (P41145 whole entry): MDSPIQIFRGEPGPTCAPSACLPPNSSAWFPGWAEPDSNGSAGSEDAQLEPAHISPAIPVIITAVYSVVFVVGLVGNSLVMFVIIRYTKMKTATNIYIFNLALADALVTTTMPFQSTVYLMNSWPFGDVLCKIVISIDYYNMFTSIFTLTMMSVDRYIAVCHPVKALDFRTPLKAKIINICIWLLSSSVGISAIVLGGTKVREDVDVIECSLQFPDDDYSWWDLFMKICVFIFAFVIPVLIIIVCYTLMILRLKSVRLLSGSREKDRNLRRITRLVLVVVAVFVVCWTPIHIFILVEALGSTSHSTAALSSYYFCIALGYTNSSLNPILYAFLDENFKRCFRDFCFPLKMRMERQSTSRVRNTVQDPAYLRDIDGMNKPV
T4 sequence (P35372 whole entry): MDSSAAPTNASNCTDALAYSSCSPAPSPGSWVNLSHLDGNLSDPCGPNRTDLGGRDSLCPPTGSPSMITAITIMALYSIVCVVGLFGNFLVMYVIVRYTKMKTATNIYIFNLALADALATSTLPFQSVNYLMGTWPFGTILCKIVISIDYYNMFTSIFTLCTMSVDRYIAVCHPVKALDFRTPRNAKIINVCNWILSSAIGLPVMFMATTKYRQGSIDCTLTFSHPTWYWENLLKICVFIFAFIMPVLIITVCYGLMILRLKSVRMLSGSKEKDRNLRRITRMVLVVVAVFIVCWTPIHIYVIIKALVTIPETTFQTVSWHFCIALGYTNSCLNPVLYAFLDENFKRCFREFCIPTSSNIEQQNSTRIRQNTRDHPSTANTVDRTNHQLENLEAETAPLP
T3 sequence (P33535 whole entry): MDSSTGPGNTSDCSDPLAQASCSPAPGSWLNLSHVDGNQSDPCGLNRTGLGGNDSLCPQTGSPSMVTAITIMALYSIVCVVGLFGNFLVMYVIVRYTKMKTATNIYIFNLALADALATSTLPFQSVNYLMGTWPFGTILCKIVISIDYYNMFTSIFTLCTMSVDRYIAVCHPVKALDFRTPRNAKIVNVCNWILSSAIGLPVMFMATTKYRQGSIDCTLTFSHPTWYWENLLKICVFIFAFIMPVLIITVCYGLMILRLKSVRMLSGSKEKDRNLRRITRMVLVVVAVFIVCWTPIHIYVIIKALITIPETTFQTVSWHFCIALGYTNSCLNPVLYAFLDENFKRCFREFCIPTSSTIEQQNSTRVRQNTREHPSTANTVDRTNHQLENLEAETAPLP
T1 sequence (P33533 whole entry): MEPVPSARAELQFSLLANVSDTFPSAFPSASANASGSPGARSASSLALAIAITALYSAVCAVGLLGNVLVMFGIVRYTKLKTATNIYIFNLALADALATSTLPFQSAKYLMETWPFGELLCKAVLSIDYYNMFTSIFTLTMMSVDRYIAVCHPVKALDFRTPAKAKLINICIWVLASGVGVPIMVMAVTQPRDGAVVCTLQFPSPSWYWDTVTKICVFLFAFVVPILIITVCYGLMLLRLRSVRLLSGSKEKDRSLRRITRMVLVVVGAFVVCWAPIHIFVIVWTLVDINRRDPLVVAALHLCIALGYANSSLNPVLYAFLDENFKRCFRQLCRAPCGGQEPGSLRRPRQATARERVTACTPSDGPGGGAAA

Compound: 3-((1S,5R,9R)-9-(2-hydroxyethyl)-2-phenethyl-2-azabicyclo[3.3.1]nonan-5-yl)phenol [Compound 9]
- 3H DADLE δ activity in exploratory assay ([1]; 100 nM concentration): I (<50% activity at 100 nM concentration (displaced less than half of radioligand) in exploratory assay)
- 3H U69,593 κ activity in exploratory assay ([2]; 100 nM concentration, rat tissue): I (<50% activity at 100 nM concentration (displaced less than half of radioligand) in exploratory assay)
- interaction with the kappa-receptor (in words) ([2]; in vitro data): does not interact with the kappa-receptor
- Ki [3]: 5.43 ± 0.09 nM
- beta-arrestin recruitment (in words) [4]: do not
- EC50 [4, 13]: > 25000 nM
- MOR cAMP Agonist (% Efficacy) ([5]; Table 1): (64 ± 2%)
- EC50 ([5]; Table 1): 4.7 ± 0.5 nM
- agonist character at the mu-receptor (in words) [5]: less potent partial agonist

Compound: COC(=O)CC[C@H]1[C@@H]2CCC[C@@]1(c1cccc(O)c1)CCN2CCc1ccccc1 [Compound 8, Methyl 3-((1S,5R,9R)-5-(3-hydroxyphenyl)-2-phenethyl-2-azabicyclo[3.3.1]nonan-9-yl)propanoate]
- Ki ([1]; triplicate, read-out: 3H DADLE δ Ki ± SEM): 118 ± 7.41 nM
- Ki ([2]; rat tissue, triplicate, read-out: 3H U69,593 κ Ki ± SEM): 23.2 ± 3.11 nM
- EC50 [6]: > 10000 nM
- KOR cAMP Antagonist Potency ± SEM ([7]; Table 1): 2.0 ± 0.4 nM
- activity at the kappa-receptor (in words) ([7]; in vitro data): kappa-receptor antagonist
- Ki [8]: 0.9 ± 0.04 nM
- beta-arrestin recruitment (in words) [4]: do not
- EC50 [4, 13]: > 25000 nM
- Emax ([4]; read-out: MOR Mediated β-arrestin Recruitment (% Control, Emax DAMGO), Table 1): 0%

Compound: O=C1CCC2C3Cc4ccc(O)c5c4[C@@]2(CCN3CCc2ccc(Cl)cc2)[C@H]1O5 (stereo partly shown) [Compound 71, 3-(4-Chlorophenethyl)-9-hydroxy-2,3,4,4a,5,6-hexahydro-1H-4,12-methanobenzofuro[3,2-e]isoquinolin-7(7aH)-one]
- δ/μ ratio (in vitro potency ratio at δ and μ opioid receptors) [9]: approximately 1
- respiratory depression in mice [10]: did not depress respiration
- effect on respiration rate (AUC 6 min to 45 min post injection) compared to saline ([10]; mice, s.c., 0.01-0.1 mg/kg): no effect on respiration rate
- EC50 ([4]; Table 4, read-out: MOR Mediated B-arrestin Recruitment): 2.44 ± 0.45 nM
- Emax ([4]; read-out: MOR Mediated B-arrestin Recruitment (% Control, Emax DAMGO), Table 4): 44.8%
- Emax ([5]; Table 4, read-out: MOR cAMP Agonist (% Efficacy) (converted)): 98.8%
- EC50 ([5]; Table 4): 0.05 ± 0.03 nM
- Bias Factor [11]: 0.82

Compound: O=C1CCC2C3Cc4ccc(O)c5c4[C@@]2(CCN3CCc2ccc(Br)cc2)[C@H]1O5 (stereo partly shown) [Compound 72, 3-(4-Bromophenethyl)-9-hydroxy-2,3,4,4a,5,6-hexahydro-1H-4,12-methanobenzofuro[3,2-e]isoquinolin-7(7aH)-one]
- δ/μ ratio (in vitro potency ratio at δ and μ opioid receptors) [9]: approximately 5
- EC50 ([5]; Table 4): 0.15 ± 0.04 nM
- agonist character at the mu-receptor (in words) [5]: potent μ agonist

Compound: CN1CC[C@]23c4c5ccc(O)c4O[C@H]2[C@@H](O)C=C[C@H]3[C@H]1C5 [Morphine, reference compound]
- respiratory depression in mice [10]: did repress respiration

Compound: COc1ccsc1CNCC[C@@]1(c2ccccn2)CCOC2(CCCC2)C1 [TRV130]
- beta-arrestin recruitment (in words), noted for known compound [12]: does recruit beta-arrestin slightly
